This passage reports TGI and GI50 results from PubChem BioAssay (NCI).

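Protocol summary: plate cells (96-well), add compound at 5 concentrations, incubate 48 h, interpolate endpoints linearly. GI50: concentration for 50% inhibition of growth. The concentration for full growth arrest is given as TGI.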 Where a SMILES comes first, the peptide text is derived from it. The star is where a group is joined. Boc = CC(C)(C)OC(=O)*

Common to all, as to assay: NCI-60 cell line screen, 48 h
Experiment [1] concerns CAKI-1 renal.
The subject of experiment [2] is COLO 205 colon.
The test system of experiment [3] is HCT-15 colon.
The test system of experiment [4] is M14 melanoma.
The test system of experiment [5] is NCI-H226 lung.
Experiment [6] has as its system NCI-H23 lung.
Experiment [7] concerns OVCAR-8 ovarian.
Experiment [8] deals with UACC-257 melanoma.
Experiment [9] relates to SR leukemia.

Regarding `CC(=O)C(CN(CC(C)C)CC(C)C)C(c1ccccc1)c1c(O)c2ccccc2oc1=O` (stereo not given), the TGI in [1], in [2], in experiment [3], in experiment [4], in experiment [5] and in experiment [6] was over 100 µM throughout. Besides, the TGI in experiment [7] and in [8] was over 100 µM each time.

As to `CCN(CC)CC1c2ccccc2C(CNc2ccccc2)N1C` (stereo not given), the TGI in [1], in experiment [2], in experiment [3], in [4], in experiment [6] and in [7] was over 100 µM in each case. Moreover, the TGI in experiment [8] is over 100 µM.

With `COc1cc2c3c(n(C)c(=O)c2cc1OC)-c1cc2c(cc1/C3=C\CCCCN1C(=O)c3ccccc3C1=O)OCO2`, the GI50 is 0.686 µM in experiment [1]; 6.28 µM in [2]; 14.8 µM in experiment [3]; 38.4 µM in [4]; 12.8 µM in experiment [5]; 1.34 µM in [6]. Besides, the GI50 was 17.1 µM in [7] and 23.4 µM in experiment [8]. Besides, the TGI in experiment [1] is 35.4 µM; in experiment [2], over 100 µM; in experiment [3], 50.5 µM; in experiment [4], over 100 µM; in [5], 31.4 µM; in experiment [6], 19.2 µM. Also, the TGI in experiment [7] and in experiment [8] was over 100 µM throughout.

For `Fc1ccc(C2SCc3nc4ccccc4n32)c(F)c1` (stereo not given), the TGI in experiment [1], in experiment [2], in experiment [3], in [4], in experiment [5] and in experiment [6] was over 100 µM in each case. Besides, the TGI in [7], in experiment [9] and in experiment [8] was over 100 µM each time.

Consider `COC(=O)C1CC2CC(=NNC(N)=O)CC2C1` (stereo not given), for which the TGI in experiment [1], in [2], in [3], in experiment [4], in [6] and in [7] was over 100 µM in each case. This molecule also gave a TGI in experiment [8] of over 100 µM.

`Fc1ccc(/C=N/n2c(-c3ccc(F)c(Cl)c3)nn(CNc3ccccc3C(F)(F)F)c2=S)cc1`: the GI50 was over 100 µM in experiment [1]; 47.7 µM in [2]; 79.4 µM in experiment [3]; 43.1 µM in experiment [4]; 69.5 µM in experiment [5]; 61.7 µM in [6]. The GI50 in [7] was 43.1 µM; in experiment [9], 31.2 µM; in experiment [8] it was 42.5 µM. Also, the TGI in experiment [1], in experiment [2], in experiment [3], in experiment [4], in [5] and in [6] was over 100 µM throughout. The TGI in [7], in [9] and in experiment [8] was over 100 µM each time.

Consider `CCCP1(=O)C=C(C)C(=C(Cl)Cl)C(C)=C1` (stereo not given), for which the TGI in experiment [2] is over 100 µM; in [3], over 100 µM; in experiment [4], over 100 µM; in [6] it was 85.5 µM; in experiment [7], over 100 µM; in [9] it was 77.4 µM. Also, the TGI in experiment [8] was over 100 µM.

With `Cc1c(/C=N/N=C/c2[nH]c(C(=O)OC(C)(C)C)c(C)c2C)[nH]c(C(=O)OC(C)(C)C)c1C`, the TGI in experiment [1], in [2], in [3], in [4], in [5] and in [6] was over 100 µM throughout. Further, the TGI in experiment [7], in [9] and in [8] was over 100 µM throughout.

Regarding `COc1ccc(-c2cc(Cc3cccs3)c(=O)[nH]n2)cc1`, the TGI in experiment [2], in [3], in [5], in [6], in experiment [7] and in [8] was over 100 µM throughout.

`CC(=O)Nc1ccc(SC#N)c2c(NC(C)=O)cccc12`: the TGI in experiment [1], in experiment [2], in experiment [3], in [4], in experiment [5] and in experiment [6] was over 100 µM in each case. Further, the TGI in [7], in experiment [9] and in experiment [8] was over 100 µM each time.

For `CCOC(=O)C1C(=S)NC(=O)C1C#N` (stereo not given), the TGI in [1], in experiment [2], in experiment [3], in [4], in experiment [6] and in experiment [7] was over 100 µM throughout. For the same molecule, the TGI in [8] is over 100 µM.

Turning to `Cc1ccc2c(C3Cc4ccccc4N3C(=O)/C=C\C(=O)O)c(C)[nH]c2c1` (stereo not given), the TGI is over 100 µM in [1]; 58.5 µM in experiment [2]; 72.5 µM in experiment [3]; over 100 µM in [4]; over 100 µM in experiment [5]; over 100 µM in [6]. The TGI in experiment [7] is over 100 µM; in [9], 72.9 µM; in experiment [8], over 100 µM.

For `Cc1cccc(C)c1NC(=O)/C(=N/NC(N)=S)C(C)C(=O)c1ccc(Cl)cc1` (stereo not given), the TGI in experiment [1], in experiment [2], in experiment [3], in experiment [4], in [5] and in [6] was over 100 µM throughout. The TGI in [7], in experiment [9] and in experiment [8] was over 100 µM throughout.

Consider `CC#CCC1CCC(OCC)=CC1=O` (stereo not given), for which the TGI in experiment [1], in experiment [2], in experiment [3], in experiment [4], in experiment [5] and in experiment [6] was over 100 µM each time. Moreover, the TGI in experiment [7], in [9] and in experiment [8] was over 100 µM throughout.

Consider `COc1ccc(C=O)c([N+](=O)[O-])c1`, for which the TGI in [2], in experiment [3], in experiment [4], in experiment [5], in experiment [6] and in experiment [7] was over 100 µM in each case. For the same molecule, the TGI in experiment [8] is over 100 µM.

As to `Cc1[nH]c2ccccc2c1C(=O)CC1(O)C(=O)Nc2c(Cl)cc(Cl)cc21` (stereo not given), the TGI was 98.3 µM in experiment [1]; 61.7 µM in experiment [2]; over 100 µM in [3]; 53.9 µM in [4]; 42.7 µM in experiment [5]; 44.5 µM in [6]. Besides, the TGI in experiment [7] was 70.4 µM; in experiment [9] it was 54.8 µM; in experiment [8] it was 31.5 µM.

For the molecule `COc1ccc(-c2[nH]c3ccccc3c2-c2ccc(OC)cc2)cc1`, the GI50 in experiment [1] is 3.67 µM; in experiment [2], 4.13 µM; in experiment [3], 3.56 µM; in experiment [4] it was 3.9 µM; in experiment [6], 6.26 µM; in experiment [7] it was 10.3 µM. In [8], the GI50 is 7.22 µM. In addition, the TGI in experiment [1] came to 17.1 µM; in experiment [2], 16.8 µM; in experiment [3] it was 14.1 µM; in [4] it was 14.8 µM; in [6] it was 26.2 µM; in experiment [7] it was 35.8 µM. The TGI in [8] amounted to 23.2 µM.

Consider `CC(=O)NC(CCCNC(=O)N(CCCl)N=O)C(=O)NCc1ccccc1` (stereo not given), for which the TGI in experiment [1], in experiment [2], in experiment [3], in [4], in experiment [5] and in experiment [6] was over 100 µM each time. The TGI in [7], in experiment [9] and in [8] was over 100 µM in each case.

`CCC(=O)C12OC3OC(C)(C)OC3C1OC(C)(C)O2` (stereo not given): the TGI in [1], in experiment [4], in experiment [5], in [6], in [7] and in experiment [9] was over 100 µM in each case. This molecule came in with a TGI in experiment [8] of over 100 µM.

In the case of `COC(=O)C1(C)CCc2c(OC)ccc(OC)c2C1=O` (stereo not given), the TGI in experiment [2], in [3], in experiment [4], in experiment [5], in [6] and in experiment [7] was over 100 µM throughout. For the same molecule, the TGI in experiment [9] and in experiment [8] was over 100 µM in each case.

For `Cc1ccc(/C=C/C(=O)C(C)(C)CN2CCCCC2)cc1`, the TGI in experiment [1] was 14.2 µM; in experiment [2], 17.2 µM; in experiment [3], 20.1 µM; in experiment [4] it was 20.2 µM; in [5] it was 27.6 µM; in [6], 30.5 µM. In addition, the TGI in [7] came to 10.3 µM; in experiment [8], 23.2 µM.

For the molecule `O=C1NC(=O)C2C(=O)NC(=O)C1C2c1c(Cl)cccc1Cl` (stereo not given), the TGI in experiment [1] was over 100 µM; in [2], over 56.3 µM; in [3], over 100 µM; in experiment [4], over 100 µM; in experiment [5] it was over 100 µM; in [6], over 100 µM. Further, the TGI in [7], in experiment [9] and in experiment [8] was over 100 µM throughout.

As for `COc1ccc2c(c1)C(=O)C1CC(=O)CCC21` (stereo not given), the TGI in experiment [1], in experiment [2], in experiment [3], in [4], in experiment [5] and in experiment [6] was over 100 µM each time. For the same molecule, the TGI in experiment [7], in [9] and in [8] was over 100 µM each time.

`O=C1OC(Cc2ccccc2)(N2CCCC2=O)C1c1ccccc1` (stereo not given): the TGI in experiment [1], in [2], in experiment [4], in [5], in experiment [6] and in experiment [7] was over 100 µM each time. In addition, the TGI in experiment [9] and in [8] was over 100 µM throughout.

On to `CC(C)(C)OC(=O)NC(Cc1ccc(O)cc1)C(=O)N1CCCC1C(=O)O` (stereo not drawn) (Boc-Tyr-Pro-OH; configuration not given here), for which the TGI in experiment [1], in experiment [2], in experiment [3], in experiment [4], in experiment [5] and in experiment [6] was over 100 µM each time. In addition, the TGI in [7], in [9] and in experiment [8] was over 100 µM each time.

Take `N#CC(=C1C=CC(=NO)C=C1)c1ccc(Cl)cc1`: the TGI was found to be 29 µM in experiment [1]; 34.5 µM in experiment [2]; 49.6 µM in [3]; 41.5 µM in [4]; 75.3 µM in experiment [6]; 60.3 µM in experiment [7]. The TGI in experiment [9] amounted to 43.5 µM.

In the case of `Cc1ccc(-c2nnc(-c3nn(-c4ccccc4)c4nc5ccccc5nc34)o2)cc1`, the TGI in experiment [1] is 26.9 µM; in experiment [2], over 100 µM; in experiment [3] it was over 100 µM; in [4], over 100 µM; in [5], 30 µM; in experiment [6] it was 40.6 µM. Besides, the figures for the TGI in [7], in [9] and in experiment [8] were 25.7 µM, over 100 µM and over 100 µM, respectively.

`CC/C=C\C/C=C\C/C=C\CCCCCCCC(=O)OCC(O)CO` (stereo not given): the TGI is 59.8 µM in experiment [1]; over 100 µM in experiment [2]; over 88 µM in experiment [3]; over 81.9 µM in [4]; over 100 µM in experiment [5]; over 100 µM in experiment [6]. Further, the TGI in [7], in [9] and in experiment [8] was over 100 µM throughout.

As to `O=C(NC1CCCCC1)NS(=O)(=O)c1ccc2c(c1)CCC2`, the TGI in [2], in experiment [3], in experiment [4], in experiment [5], in experiment [6] and in experiment [7] was over 100 µM each time. For the same molecule, the TGI in [9] and in experiment [8] was over 100 µM each time.
